# Laboratory results: patent publication US12042478B2, “(R)-2-[(2H-1,3-benzodioxol-5-yl)methyl]pyrrolidine and processes for preparation, compositions and uses thereof” (Pharmala Biotech Inc., priority 2022, dated 2024)
# Assays:
# C57 and BTBR mice [1] = test: Conditioned place preference; type: in vivo, mouse
# Method: The same 2-compartment chambers as described above in the social preference studies for conditioned place preference. For these studies, compartments are differentiated by floor texture (rough black plastic vs steel punch plate) and wall pattern (vertical vs. horizontal stripes.) An initial preference/habituation test was first run where mice were able to freely traverse the apparatus for 30 minutes. The following day, mice were assigned to receive saline in one compartment and drug in the other. Saline pairings occurred in the morning, drug pairings occurred in the afternoon, and were separated by at least 4 hours, during which time mice returned to their home cages. Three such pairings were performed, where mice were injected, returned to the home cage for a 15 min pretreatment period, then confined to the injection-appropriate compartment for 30 minutes. Half the subjects (within strain) received drug pairings on the plastic floor+vertical stripes side, and the other half received drug pairings on the punch plate floor+horizontal stripes side. […] The post-conditioning preference test was identical to the initial preference/habituation session, where mice were freely able to traverse the apparatus for 30 minutes. Time spent in each compartment was recorded, and expressed as a preference score for the drug paired side (calculated as time spent in that compartment during the post-test—time spent there during the pre-test.) All preference and conditioning sessions were conducted under the same low light conditions as in the social preference tests.
# DAT = DAT (Homo sapiens, UniProt Q01959); test: QSAR model predicted IC50, DAT; details: ratio = 1/DAT IC50:1/SERT IC50, from predicted IC50
# Sequence of DAT (Q01959 whole entry, species assumed): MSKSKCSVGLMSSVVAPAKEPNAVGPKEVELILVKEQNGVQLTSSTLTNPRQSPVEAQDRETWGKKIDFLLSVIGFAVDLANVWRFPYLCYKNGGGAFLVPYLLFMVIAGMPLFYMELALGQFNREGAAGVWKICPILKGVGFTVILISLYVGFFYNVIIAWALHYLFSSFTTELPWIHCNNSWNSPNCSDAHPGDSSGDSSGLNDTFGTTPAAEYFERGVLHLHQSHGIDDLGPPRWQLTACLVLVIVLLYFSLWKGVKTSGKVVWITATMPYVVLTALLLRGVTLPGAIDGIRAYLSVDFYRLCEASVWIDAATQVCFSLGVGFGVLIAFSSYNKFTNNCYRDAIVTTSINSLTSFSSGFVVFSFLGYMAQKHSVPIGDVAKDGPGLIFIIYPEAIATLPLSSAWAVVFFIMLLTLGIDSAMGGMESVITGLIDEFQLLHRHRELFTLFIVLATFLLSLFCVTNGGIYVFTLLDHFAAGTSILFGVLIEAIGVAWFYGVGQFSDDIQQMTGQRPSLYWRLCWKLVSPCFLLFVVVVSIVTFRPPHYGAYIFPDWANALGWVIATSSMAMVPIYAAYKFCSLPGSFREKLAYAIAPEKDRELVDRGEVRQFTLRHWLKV
# Method: In silico studies (QSAR and docking) are useful tools to understand drug mechanisms, and they are relatively cheaper and faster than experiments. A QSAR model was created for each monoamine transporter. Additionally, the docking properties of phenethylamines were investigated.
# QSAR: DAT, SERT and NET IC50 values were collected from the literature for 73 phenethylamines. Three different software's were used for descriptor calculations, and almost 2000 descriptors were calculated. Highly correlated descriptors were eliminated before multi-linear regression (MLR) analysis. All descriptors were merged with experimental inhibition values in QSARiNS software. The multi-Criteria Decision-Making tool of QSARiNS was used to pick the best model.
# The predicted IC^50 (mM) values of the test molecules generated based on the QSAR developed as described above are presented in Table 4.
# C57 and BTBR mice [2] = test: Social preference procedure: social novelty preference test; type: in vivo, mouse
# Method: (§1) All drugs were dissolved in physiological 0.9% saline and administered at a constant volume of 1 ml/100 g body weight. Because all drugs utilized in these studies were synthesized as hydrochloride (HCl) salts, they were weighed as salts prior to the preparation of all solutions. All drugs at all concentrations are readily dissolved in an aqueous solution at normal pH. Injections of all drugs were administered intraperitoneally (IP) to mimic pharmacokinetic parameters typical of oral administration, without the behaviour-impairing effects of gavage stress.
# (§2) This assay was conducted in adult male C57 and BTBR mice (n=6 per group) in a dedicated conditioning room where ambient light, sound, and human contact were tightly controlled.
# Social preference chambers consisted of two polycarbonate boxes (13.5 cm wide×22.5 cm tall×31.0 cm deep), floored with rough-textured black ABS plastic, and connected to one another by a 1.25″ PVC T-junction. An infrared photobeam emitter/detector array was mounted at each intersection of the T-junction and each preference compartment, and as a mouse traversed the apparatus, it would break the photobeam upon entry to or exit from each preference compartment. Beam breaks started or stopped a counter on an interfaced computer, allowing automated collection of time spent in each compartment. […]
# C57 and BTBR mice [3] = test: Social preference procedure: sociability test; type: in vivo, mouse; details: 1 mg/kg IP
# Method: as §1, §2
# (§3) Social preference chambers consisted of two polycarbonate boxes (13.5 cm wide×22.5 cm tall×31.0 cm deep), floored with rough-textured black ABS plastic, and connected to one another by a 1.25″ PVC T-junction. An infrared photobeam emitter/detector array was mounted at each intersection of the T-junction and each preference compartment, and as a mouse traversed the apparatus, it would break the photobeam upon entry to or exit from each preference compartment. Beam breaks started or stopped a counter on an interfaced computer, allowing automated collection of time spent in each compartment. At the end of each test, data were reported as time (in seconds) spent in each compartment, the number of entries into each compartment, and the average time spent in each compartment following an entry. Social preference tests were conducted in an iterative manner, with each test subject completing four distinct phases as described below. Between testing sessions, chambers were sanitized by wiping the insides with a disinfectant product provided by the UAMS Department of Laboratory Animal Medicine. At the end of the week (upon completion of all phases of the procedure), each apparatus was disassembled and all parts were sanitized. No food or water were available during social preference sessions, but were available in the home cage immediately afterwards.
# A single sociability session occurred the day after the novelty preference test, where one compartment contained a wire mesh cup with a dummy mouse inside while the other compartment contained a male NIH Swiss stranger mouse inside the previously empty cup (see FIG. 4). […] The position of the dummy mouse (left or right compartment) remained the same for each subject as during the novelty test the day before, thereby counterbalancing the position of the stranger mouse across subjects. NIH Swiss stranger mice were similar in mass and appearance to the dummy PVC mice, and were housed separately from the experimental subjects (C57 and BTBR mice) in the colony facility. The first time the experimental subjects ever encountered the stranger mice was when they entered the compartment where they were contained. During this session, mice were weighed, administered the same injection as the day before, and returned to their home cage for a 30 min pretreatment period. Mice were then introduced into the T-junction and allowed to explore both preference compartments for 15 minutes. Sociability tests always occurred on Wednesdays or Thursdays to prevent any weekend testing.
# C57 and BTBR mice [4] = test: Compartment entries during social novelty test (proxy for locomotor stimulant effects); type: in vivo, mouse; details: 1 mg/kg, C57 mice, relative to saline
# Description: as §3
# Quantifying total entries into the preference compartments provides a proxy measurement for locomotor stimulant effects of the various doses of the various test drugs. This establishes a limit to the drug doses that can be tested in the social preference procedure, as induction of locomotor stimulant effects confounds preference assessments (because mice stop attending to the social stimuli in each compartment and instead spend their time engaged in locomotor behavior.) Motor activity varies across the distinct phases of social preference testing, in part because the habituation session is twice as long (30 minutes) as the novelty, sociability, and social novelty tests (15 minutes each), but also because mice emit high levels of exploratory behavior in novel environments. Thus, as familiarity with the test apparatus increases over successive exposures to the chambers, the number of entries decreases.
# (Note that entries were collected for every test, but drug effects on entries during earlier phases may be less reliable due to the confounding influence of changing familiarity with the apparatus across phases.)
# C57 and BTBR mice [5] = test: Social preference procedure: novelty preference test; type: in vivo, mouse; details: 1 mg/kg IP
# Method: as §1, §2
# as §3, with “afterwards. […]” for “afterwards.”
# [6] = 3 mg/kg, x3 pairings, C57 and BTBR mice
smiles,measurement,setting,value
"CN[C@@H](C)Cc1ccc2c(c1)OCO2 [S-MDMA, reference compound]",place conditioning (place preference),C57 and BTBR mice [1]; [6],significant place preferences
same,DAT/SERT (calculated),DAT,0.383
"c1cc2c(cc1CC1CCCN1)OCO2 (racemic) [(R/S)-I, (R/S)-2-[(2H-1,3-benzodioxol-5-yl)methyl]pyrrolidine]","pro-social response (time with stranger mouse, social novelty preference)",C57 and BTBR mice [2]; 1 mg/kg,strongest pro-social response
same,"pro-social response (time with stranger mouse, social novelty preference)",C57 and BTBR mice [2]; 1.8 mg/kg,the response drops
"CN[C@H](C)Cc1ccc2c(c1)OCO2 [R-MDMA, reference compound]",place conditioning (place preference),"C57 and BTBR mice [1]; 10 mg/kg, either strain",no significant effects
same,DAT/SERT (calculated),DAT,0.010
"CN[C@@H](C)Cc1ccccc1 [S-methamphetamine, reference compound]",place conditioning (place preference),"C57 and BTBR mice [1]; 1.0 and 3.0 mg/kg, x3 pairings, C57 and BTBR mice",significant place preferences in C57 mice only
"CNC(C)Cc1ccc2c(c1)OCO2 (racemic) [racemic MDMA, 1-(1,3-benzodioxol-5-yl)-N-methylpropan-2-amine, reference compound]",sociability (time spent with stranger mouse),C57 and BTBR mice [3]; BTBR mice,minor increase in the sociability response
same,sociability (time spent with stranger mouse),C57 and BTBR mice [3]; C57 mice,no impact
same,total entries during social novelty test,C57 and BTBR mice [4],no effect
same,place conditioning (place preference),C57 and BTBR mice [1]; [6],significant place preferences
same,effect on novelty preference (time spent with dummy mouse),C57 and BTBR mice [5],no systematic effects
